This note sets out measurements from patent US10829481B2, “Benzimidazole derivatives as modulators of ROR-gamma” (Vitae Pharmaceuticals, LLC, priority 2016, dated 2020).

The target in assay [1] is full-length RORγt in Jurkat cells (Homo sapiens (Human), UniProt P51449). In words: RORγt 5×RORE Assay in Jurkat Cells (Assay 2). The assay is classed as cell-based. The conditions noted are these: 5×RORE Nanoluc luciferase reporter. (A reporter such as luciferase makes a cellular process visible.)
Assay [2] deals with recombinant RORγ Ligand Binding Domain (LBD) protein (Homo sapiens (Human), UniProt P51449). In words: Radio-Ligand RORγ Binding Assay (Assay 1). As to conditions: competition with 25-hydroxy [26,27-3H]-cholesterol, SPA. The procedure, abridged:
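Scintillation proximity competition against 25-hydroxy [26,27-^3H]-cholesterol (8.6 nM solution) for 6×His-GST-tagged RORγ LBD (24 nM solution) in HEPES pH 7.4 with CHAPS, β-octylglucopyranoside and DTT; semi-log compound dilutions, ~1 h total at rt with poly-Lys YSi beads. IC50 from four-parameter fit; Ki derived from [RL] and radioligand KD.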

One may read the IC50 as the concentration needed to halve the response being measured. A word on the Ki: it is a measure of affinity in units of concentration, obtained from inhibition or displacement.

Chain of full-length RORγt in Jurkat cells (P51449 other isoform, or with tags, fused parts or gaps): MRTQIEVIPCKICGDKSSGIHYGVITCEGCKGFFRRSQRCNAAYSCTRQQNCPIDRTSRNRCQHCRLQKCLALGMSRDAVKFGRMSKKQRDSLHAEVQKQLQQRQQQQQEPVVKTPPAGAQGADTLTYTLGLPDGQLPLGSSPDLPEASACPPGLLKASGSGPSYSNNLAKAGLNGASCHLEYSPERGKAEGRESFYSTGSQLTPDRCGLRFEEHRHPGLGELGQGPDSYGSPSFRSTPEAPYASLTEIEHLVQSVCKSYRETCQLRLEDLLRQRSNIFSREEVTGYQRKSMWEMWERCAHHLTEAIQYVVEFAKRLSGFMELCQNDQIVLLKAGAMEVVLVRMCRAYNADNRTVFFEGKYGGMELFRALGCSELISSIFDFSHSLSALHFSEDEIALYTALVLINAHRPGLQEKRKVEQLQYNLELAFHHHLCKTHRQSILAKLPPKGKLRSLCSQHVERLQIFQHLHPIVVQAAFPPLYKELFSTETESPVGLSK
Chain of recombinant RORγ Ligand Binding Domain (LBD) protein (P51449 269-508): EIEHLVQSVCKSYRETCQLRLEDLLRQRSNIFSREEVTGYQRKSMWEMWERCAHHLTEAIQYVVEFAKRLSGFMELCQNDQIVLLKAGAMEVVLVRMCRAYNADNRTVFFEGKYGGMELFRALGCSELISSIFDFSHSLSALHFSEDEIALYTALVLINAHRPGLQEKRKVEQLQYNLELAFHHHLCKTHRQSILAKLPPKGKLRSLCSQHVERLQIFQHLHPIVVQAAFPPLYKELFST

Consider `CNS(=O)(=O)c1ccc(CNC(=O)c2ccc3c(c2)nc(C2(F)CC2)n3Cc2cccc3c2OC(F)(F)O3)cc1` [I-42, 1-((2,2-difluorobenzo[d][1,3]dioxol-4-yl)methyl)-2-(1-fluorocyclopropyl)-N-(4-(N-methylsulfamoyl)benzyl)-1H-benzo[d]imidazole-5-carboxamide], for which the IC50 in assay [1] was less than 100 nM. Moreover, the Ki in assay [2] was less than 100 nM.

`CCS(=O)(=O)c1ccc(CNC(=O)c2ccc3c(c2)nc(C2(F)CCC2)n3Cc2cccc3c2OC(F)(F)O3)cc1` [I-43, 1-((2,2-difluorobenzo[d][1,3]dioxol-4-yl)methyl)-N-(4-(ethylsulfonyl)benzyl)-2-(1-fluorocyclobutyl)-1H-benzo[d]imidazole-5-carboxamide]: the concentration for half-maximal inhibition (IC50) in assay [1] is less than 100 nM. In addition, in assay [2], the Ki is less than 100 nM.

In assay [1], `O=C(NCc1ccc(S(=O)(=O)CCO)cc1)c1ccc2c(c1)nc(C(F)(F)F)n2Cc1cccc2c1OC(F)(F)O2` [I-45, 1-((2,2-difluorobenzo[d][1,3]dioxol-4-yl)methyl)-N-(4-((2-hydroxyethyl)sulfonyl)benzyl)-2-(trifluoromethyl)-1H-benzo[d]imidazole-5-carboxamide] registered an IC50 of less than 100 nM. In addition, in assay [2], the Ki is less than 100 nM.

For `CNS(=O)(=O)c1ccc(CNC(=O)c2ccc3c(c2)nc(C(F)(F)F)n3Cc2cccc3c2OC(F)(F)O3)cc1` [I-46, 1-((2,2-difluorobenzo[d][1,3]dioxol-4-yl)methyl)-N-(4-(N-methylsulfamoyl)benzyl)-2-(trifluoromethyl)-1H-benzo[d]imidazole-5-carboxamide], the 50% inhibitory concentration (IC50) in assay [1] was less than 100 nM. Also, the Ki in assay [2] is less than 100 nM.

As for `O=C(NCc1ccc(S(=O)(=O)CCO)cc1)c1ccc2c(c1)nc(C1CC1)n2Cc1cccc2c1OC(F)(F)O2` [I-47, 2-cyclopropyl-1-((2,2-difluorobenzo[d][1,3]dioxol-4-yl)methyl)-N-(4-((2-hydroxyethyl)sulfonyl)benzyl)-1H-benzo[d]imidazole-5-carboxamide], the IC50 in assay [1] was less than 100 nM. Besides, the Ki in assay [2] is less than 100 nM.

Compound `CS(=O)(=O)c1ccc(CNC(=O)c2ccc3c(c2)nc(C(F)(F)F)n3Cc2cccc3c2OC(F)(F)O3)cc1` [I-48, 1-((2,2-difluorobenzo[d][1,3]dioxol-4-yl)methyl)-N-(4-(methylsulfonyl)benzyl)-2-(trifluoromethyl)-1H-benzo[d]imidazole-5-carboxamide] registered an IC50 in assay [1] of less than 100 nM. Besides, in assay [2], the Ki is less than 100 nM.

In assay [1], `CS(=O)(=O)c1ccc(CNC(=O)c2ccc3c(c2)nc(C(F)F)n3Cc2cccc3c2OC(F)(F)O3)cc1` [I-50, 1-((2,2-difluorobenzo[d][1,3]dioxol-4-yl)methyl)-2-(difluoromethyl)-N-(4-(methylsulfonyl)benzyl)-1H-benzo[d]imidazole-5-carboxamide] had an IC50 of less than 100 nM. Moreover, the Ki in assay [2] was less than 100 nM.

The compound `NS(=O)(=O)c1ccc(CNC(=O)c2ccc3c(c2)nc(C(F)(F)F)n3Cc2cccc3c2OC(F)(F)O3)cc1` [I-51, 1-((2,2-difluorobenzo[d][1,3]dioxol-4-yl)methyl)-N-(4-sulfamoylbenzyl)-2-(trifluoromethyl)-1H-benzo[d]imidazole-5-carboxamide] showed an IC50 in assay [1] of 100 to 1000 nM. For the same compound, the inhibition constant Ki in assay [2] was less than 100 nM.

In assay [1], `CCCS(=O)(=O)c1ccc(CNC(=O)c2ccc3c(c2)nc(C(F)(F)F)n3Cc2cccc3c2OC(F)(F)O3)cc1` [I-52, 1-((2,2-difluorobenzo[d][1,3]dioxol-4-yl)methyl)-N-(4-(propylsulfonyl)benzyl)-2-(trifluoromethyl)-1H-benzo[d]imidazole-5-carboxamide] returned an IC50 of less than 100 nM. The Ki in assay [2] is less than 100 nM.

On to `COC(=O)CS(=O)(=O)c1ccc(CNC(=O)c2ccc3c(c2)nc(C(F)(F)F)n3Cc2cccc3c2OC(F)(F)O3)cc1` [I-53, methyl 2-((4-((1-((2,2-difluorobenzo[d][1,3]dioxol-4-yl)methyl)-2-(trifluoromethyl)-1H-benzo[d]imidazole-5-carboxamido)methyl)phenyl)sulfonyl)acetate], for which, in assay [1], the IC50 lay in the range of 100 to 1000 nM. The Ki in assay [2] was less than 100 nM.

For `CCS(=O)(=O)c1ccc(CNC(=O)c2ccc3c(c2)nc(C(C)(C)OC)n3Cc2cccc3c2OC(F)(F)O3)cc1` [I-54, 1-((2,2-difluorobenzo[d][1,3]dioxol-4-yl)methyl)-N-(4-(ethylsulfonyl)benzyl)-2-(2-methoxypropan-2-yl)-1H-benzo[d]imidazole-5-carboxamide], in assay [1], the IC50 is less than 100 nM. The Ki in assay [2] was less than 100 nM.

Consider `CCS(=O)(=O)c1ccc(CNC(=O)c2ccc3c(c2)nc(OC)n3Cc2cccc3c2OC(F)(F)O3)cc1` [I-55, 1-((2,2-difluorobenzo[d][1,3]dioxol-4-yl)methyl)-N-(4-(ethylsulfonyl)benzyl)-2-methoxy-1H-benzo[d]imidazole-5-carboxamide], for which the IC50 in assay [1] was 100 to 1000 nM. The Ki in assay [2] is less than 100 nM.

For the compound `CCS(=O)(=O)c1ccc(CNC(=O)c2ccc3c(c2)nc([C@@H]2C[C@H]2C#N)n3Cc2cccc3c2OC(F)(F)O3)cc1` [I-57, 2-((1R,2R)-2-cyanocyclopropyl)-1-((2,2-difluorobenzo[d][1,3]dioxol-4-yl)methyl)-N-(4-(ethylsulfonyl)benzyl)-1H-benzo[d]imidazole-5-carboxamide], the IC50 in assay [1] was less than 100 nM. For the same compound, the Ki in assay [2] is less than 100 nM.

`CCS(=O)(=O)c1ccc(CNC(=O)c2ccc3c(c2)nc([C@@H]2C[C@H]2C(=O)OC)n3Cc2cccc3c2OC(F)(F)O3)cc1` [I-58, methyl(1R,2R)-2-(1-((2,2-difluorobenzo[d][1,3]dioxol-4-yl)methyl)-5-((4-(ethylsulfonyl)benzyl)carbamoyl)-1H-benzo[d]imidazol-2-yl)cyclopropane-1-carboxylate] showed an IC50 in assay [1] of 100 to 1000 nM. Moreover, the Ki in assay [2] is less than 100 nM.

`CCS(=O)(=O)c1ccc([C@H](COC)NC(=O)c2ccc3c(c2)nc(C(F)(F)F)n3Cc2cccc3c2OC(F)(F)O3)cc1` [I-59, (R)-1-((2,2-difluorobenzo[d][1,3]dioxol-4-yl)methyl)-N-(1-(4-(ethylsulfonyl)phenyl)-2-methoxyethyl)-2-(trifluoromethyl)-1H-benzo[d]imidazole-5-carboxamide] showed an IC50 in assay [1] of less than 100 nM. The Ki in assay [2] was less than 100 nM.

`CCS(=O)(=O)c1ccc([C@H](COC)NC(=O)c2ccc3c(c2)nc(C2CC2)n3Cc2cccc3c2OC(F)(F)O3)cc1` [I-60, (R)-2-cyclopropyl-1-((2,2-difluorobenzo[d][1,3]dioxol-4-yl)methyl)-N-(1-(4-(ethylsulfonyl)phenyl)-2-methoxyethyl)-1H-benzo[d]imidazole-5-carboxamide]: the IC50 in assay [1] was less than 100 nM. Besides, the Ki in assay [2] was less than 100 nM.

In assay [1], `CCS(=O)(=O)c1ccc([C@H](COC)NC(=O)c2ccc3c(c2)nc(C2(F)CC2)n3Cc2cccc3c2OC(F)(F)O3)cc1` [I-61, (R)-1-((2,2-difluorobenzo[d][1,3]dioxol-4-yl)methyl)-N-(1-(4-(ethylsulfonyl)phenyl)-2-methoxyethyl)-2-(1-fluorocyclopropyl)-1H-benzo[d]imidazole-5-carboxamide] displayed an IC50 of less than 100 nM. Also, in assay [2], the Ki is less than 100 nM.

`CCS(=O)(=O)c1ccc([C@H](COC)NC(=O)c2ccc3c(c2)nc(C(F)(F)F)n3Cc2cccc3c2OC(F)(F)O3)nc1` [I-62, (R)-1-((2,2-difluorobenzo[d][1,3]dioxol-4-yl)methyl)-N-(1-(5-(ethylsulfonyl)pyridin-2-yl)-2-methoxyethyl)-2-(trifluoromethyl)-1H-benzo[d]imidazole-5-carboxamide] registered an IC50 in assay [1] of less than 100 nM. Further, in assay [2], the Ki was less than 100 nM.

In the case of `CCS(=O)(=O)c1ccc(CNC(=O)c2ccc3c(c2)nc(C(F)(F)F)n3Cc2cccc3c2OC(F)(F)O3)nc1` [I-63, 1-((2,2-difluorobenzo[d][1,3]dioxol-4-yl)methyl)-N-((5-(ethylsulfonyl)pyridin-2-yl)methyl)-2-(trifluoromethyl)-1H-benzo[d]imidazole-5-carboxamide], the IC50 in assay [1] was less than 100 nM. In assay [2], the Ki was less than 100 nM.

On to `CCS(=O)(=O)c1ccc(CNC(=O)c2ccc3c(c2)nc(C2CC2)n3Cc2cccc3c2OC(F)(F)O3)nc1` [I-64, 2-cyclopropyl-1-((2,2-difluorobenzo[d][1,3]dioxol-4-yl)methyl)-N-((5-(ethylsulfonyl)pyridin-2-yl)methyl)-1H-benzo[d]imidazole-5-carboxamide], for which, in assay [1], the IC50 is less than 100 nM. For the same compound, the Ki in assay [2] was less than 100 nM.

As to `CCS(=O)(=O)c1ccc(CNC(=O)c2ccc3c(c2)nc(C2CCC2)n3Cc2cccc3c2OC(F)(F)O3)nc1` [I-65, 2-cyclobutyl-1-((2,2-difluorobenzo[d][1,3]dioxol-4-yl)methyl)-N-((5-(ethylsulfonyl)pyridin-2-yl)methyl)-1H-benzo[d]imidazole-5-carboxamide], the IC50 in assay [1] is less than 100 nM. For the same compound, the Ki in assay [2] is less than 100 nM.

Compound `CCS(=O)(=O)c1ccc(CNC(=O)c2ccc3c(c2)nc(C(C)(F)F)n3Cc2cccc3c2OC(F)(F)O3)nc1` [I-66, 1-((2,2-difluorobenzo[d][1,3]dioxol-4-yl)methyl)-2-(1,1-difluoroethyl)-N-((5-(ethylsulfonyl)pyridin-2-yl)methyl)-1H-benzo[d]imidazole-5-carboxamide] had an IC50 in assay [1] of less than 100 nM. For the same compound, in assay [2], the Ki is less than 100 nM.

With `CCS(=O)(=O)c1ccc(CNC(=O)c2ccc3c(c2)nc(C2(F)CC2)n3Cc2cccc3c2OC(F)(F)O3)nc1` [I-67, 1-((2,2-difluorobenzo[d][1,3]dioxol-4-yl)methyl)-N-((5-(ethylsulfonyl)pyridin-2-yl)methyl)-2-(1-fluorocyclopropyl)-1H-benzo[d]imidazole-5-carboxamide], the IC50 in assay [1] was less than 100 nM. For the same compound, in assay [2], the Ki is less than 100 nM.
